# Measured values published in patent publication US8278452B2, “Heterocyclic compounds and compositions as c-kit and PDGFR kinase inhibitors” (IRM LLC, priority 2008, dated 2012).
# System: Mo7e cells which endogenously express c-kit
# Assay: Mo7e assay: inhibition of SCF dependent proliferation (MTT)
# Type: cell-based
# Conditions: Table 1; SCF stimulated Mo7e cells, 48 hours, MTT
# Procedure: The compounds described herein are tested for inhibition of SCF dependent proliferation using Mo7e cells which endogenously express c-kit in a 96 well format. Two-fold serially diluted test compounds (Cmax=10 μM) are evaluated for their antiproliferative activity of Mo7e cells stimulated with human recombinant SCF. After 48 hours of incubation at 37° C., cell viability is measured by using a MTT colorimetric assay from Promega. IC50 values for compounds of the invention are quoted in table 1, supra.
structure (smiles),measurement,value
"CCC(CC)c1nc(Nc2ccc(C)c(-c3cc4cnc(C)cc4n(C)c3=O)c2)no1 [Compound A31, 1,7-dimethyl-3-(2-methyl-5-{[5-(pentan-3-yl)-1,2,4-oxadiazol-3-yl]amino}phenyl)-1,2-dihydro-1,6-naphthyridin-2-one]",IC50,105 nM
"Cc1cc2c(cn1)cc(-c1cc(Nc3noc(-c4ccc(C(C)(F)F)nc4)n3)ccc1C)c(=O)n2C [Compound A88, 3-[5-({5-[6-(1,1-difluoroethyl)pyridin-3-yl]-1,2,4-oxadiazol-3-yl}amino)-2-methylphenyl]-1,7-dimethyl-1,2-dihydro-1,6-naphthyridin-2-one]",IC50,259 nM
"Cc1cc2c(cn1)cc(-c1cc(Nc3noc(CC(C)O)n3)ccc1C)c(=O)n2C (stereo not drawn) [Compound A55, 3-(5-{[5-(2-hydroxypropyl)-1,2,4-oxadiazol-3-yl]amino}-2-methylphenyl)-1,7-dimethyl-1,2-dihydro-1,6-naphthyridin-2-one]",IC50,294 nM
"Cc1cc2c(cn1)cc(-c1cc(Nc3noc(C4(C)CC4)n3)ccc1C)c(=O)n2C [Compound A34, 1,7-dimethyl-3-(2-methyl-5-(5-(1-methylcyclopropyl)-1,2,4-oxadiazol-3-ylamino)phenyl)-1,6-naphthyridin-2(1H)-one]",IC50,83 nM
"Cc1cc2c(cn1)cc(-c1cc(Nc3noc(-c4ccc(CN)cc4)n3)ccc1C)c(=O)n2C [Compound A90, 3-[5-({5-[4-(aminomethyl)phenyl]-1,2,4-oxadiazol-3-yl}amino)-2-methylphenyl]-1,7-dimethyl-1,2-dihydro-1,6-naphthyridin-2-one]",IC50,434 nM
"Cc1cc2c(cn1)cc(-c1cc(Nc3noc(-c4ccc(CO)cc4)n3)ccc1C)c(=O)n2C [Compound A43, 3-[5-({5-[4-(hydroxymethyl)phenyl]-1,2,4-oxadiazol-3-yl}amino)-2-methylphenyl]-1,7-dimethyl-1,2-dihydro-1,6-naphthyridin-2-one]",IC50,386 nM
"Cc1ccc(-c2nc(Nc3ccc(C)c(-c4cc5cnc(C)cc5n(C)c4=O)c3)no2)nc1 [Compound A102, 1,7-dimethyl-3-(2-methyl-5-{[5-(5-methylpyridin-2-yl)-1,2,4-oxadiazol-3-yl]amino}phenyl)-1,2-dihydro-1,6-naphthyridin-2-one]",IC50,113 nM
"Cc1cc2c(cn1)cc(-c1cc(Nc3nnc(C4CCCC4)[nH]3)ccc1C)c(=O)n2C [Compound C1, 3-(5-(5-cyclopentyl-4H-1,2,4-triazol-3-ylamino)-2-methylphenyl)-1,7-dimethyl-1,6-naphthyridin-2(1H)-one]",IC50,120 nM
"Cc1ccc(Nc2noc(-c3ccccc3)n2)cc1-c1cc2c[n+]([O-])c(C)cc2n(C)c1=O [Compound A86, 1,7-dimethyl-3-{2-methyl-5-[(5-phenyl-1,2,4-oxadiazol-3-yl)amino]phenyl}-6-oxido-2-oxo-1,2-dihydro-1,6-naphthyridin-6-ium]",IC50,216 nM
"Cc1ccc(-c2nnc(Nc3ccc(C)c(-c4cc5cnc(C)cc5n(C)c4=O)c3)[nH]2)cc1 [Compound C4, 1,7-dimethyl-3-(2-methyl-5-{[5-(4-methylphenyl)-4H-1,2,4-triazol-3-yl]amino}phenyl)-1,2-dihydro-1,6-naphthyridin-2-one]",IC50,288 nM
"Cc1cc2c(cn1)cc(-c1cc(Nc3noc(-c4ccc(Cl)cc4)n3)ccc1C)c(=O)n2C [Compound A12, 3-(5-{[5-(4-chlorophenyl)-1,2,4-oxadiazol-3-yl]amino}-2-methylphenyl)-1,7-dimethyl-1,2-dihydro-1,6-naphthyridin-2-one]",IC50,13 nM
"CCc1cc2c(cn1)cc(-c1cc(Nc3noc(-c4ccccn4)n3)ccc1C)c(=O)n2C [Compound A105, 7-ethyl-1-methyl-3-(2-methyl-5-(5-(pyridin-2-yl)-1,2,4-oxadiazol-3-ylamino)phenyl)-1,6-naphthyridin-2(1H)-one]",IC50,285 nM
"Cc1cc2c(cn1)cc(-c1cc(Nc3noc(-c4ccccc4)n3)ccc1C)c(=O)n2C [Compound A7, 1,7-dimethyl-3-(2-methyl-5-(5-phenyl-1,2,4-oxadiazol-3-ylamino)phenyl)-1,6-naphthyridin-2(1H)-one]",IC50,76 nM
"Cc1cc2c(cn1)cc(-c1cc(Nc3noc(C4CCO4)n3)ccc1C)c(=O)n2C (stereo not drawn) [Compound A66, 1,7-dimethyl-3-(2-methyl-5-{[5-(oxetan-2-yl)-1,2,4-oxadiazol-3-yl]amino}phenyl)-1,2-dihydro-1,6-naphthyridin-2-one]",IC50,143 nM
"CC(=O)c1ccccc1-c1nc(Nc2ccc(C)c(-c3cc4cnc(C)cc4n(C)c3=O)c2)no1 [Compound A94, 3-(5-{[5-(2-acetylphenyl)-1,2,4-oxadiazol-3-yl]amino}-2-methylphenyl)-1,7-dimethyl-1,2-dihydro-1,6-naphthyridin-2-one]",IC50,258 nM
"Cc1cc2c(cn1)cc(-c1cc(Nc3nnc(C4CCC4)[nH]3)ccc1C)c(=O)n2C [Compound C8, 3-{5-[(5-cyclobutyl-4H-1,2,4-triazol-3-yl)amino]-2-methylphenyl}-1,7-dimethyl-1,2-dihydro-1,6-naphthyridin-2-one]",IC50,435 nM
"Cc1cc2c(cn1)cc(-c1cc(Nc3noc(C4Cc5ccccc5O4)n3)ccc1C)c(=O)n2C (stereo not drawn) [Compound A98, 3-(5-{[5-(2,3-dihydro-1-benzofuran-2-yl)-1,2,4-oxadiazol-3-yl]amino}-2-methylphenyl)-1,7-dimethyl-1,2-dihydro-1,6-naphthyridin-2-one]",IC50,389 nM
"Cc1cc2c(cn1)cc(-c1cc(Nc3noc(-c4nccn4C)n3)ccc1C)c(=O)n2C [Compound A22, 1,7-dimethyl-3-(2-methyl-5-{[5-(1-methyl-1H-imidazol-2-yl)-1,2,4-oxadiazol-3-yl]amino}phenyl)-1,2-dihydro-1,6-naphthyridin-2-one]",IC50,360 nM
"Cc1cc2c(cn1)cc(-c1cc(Nc3nnc(C(C)C)o3)ccc1C)c(=O)n2C [Compound B7, 1,7-dimethyl-3-(2-methyl-5-{[5-(propan-2-yl)-1,3,4-oxadiazol-2-yl]amino}phenyl)-1,2-dihydro-1,6-naphthyridin-2-one]",IC50,162 nM
"Cc1cc2c(cn1)cc(-c1cc(Nc3noc(-c4cc5cc(Cl)ccc5[nH]4)n3)ccc1C)c(=O)n2C [Compound A46, 3-(5-{[5-(5-chloro-1H-indol-2-yl)-1,2,4-oxadiazol-3-yl]amino}-2-methylphenyl)-1,7-dimethyl-1,2-dihydro-1,6-naphthyridin-2-one]",IC50,338 nM
"Cc1cc2c(cn1)cc(-c1cc(Nc3noc(-c4cccnc4F)n3)ccc1C)c(=O)n2C [Compound A91, 3-(5-{[5-(2-fluoropyridin-3-yl)-1,2,4-oxadiazol-3-yl]amino}-2-methylphenyl)-1,7-dimethyl-1,2-dihydro-1,6-naphthyridin-2-one]",IC50,244 nM
"Cc1cc2c(cn1)cc(-c1cc(Nc3noc(C(C)C)n3)ccc1C)c(=O)n2C [Compound A6, 3-(5-(5-isopropyl-1,2,4-oxadiazol-3-ylamino)-2-methylphenyl)-1,7-dimethyl-1,6-naphthyridin-2(1H)-one]",IC50,34 nM
"Cc1cc2c(cn1)cc(-c1cc(Nc3noc(CC(C)(C)O)n3)ccc1C)c(=O)n2C [Compound A56, 3-(5-(5-(2-hydroxy-2-methylpropyl)-1,2,4-oxadiazol-3-ylamino)-2-methylphenyl)-1,7-dimethyl-1,6-naphthyridin-2(1H)-one]",IC50,230 nM
Cc1cc2c(cn1)cc(-c1cc(Nc3cc(-c4ccc(Cl)nc4)on3)ccc1C)c(=O)n2C [Compound D12],IC50,198 nM
"Cc1cc2c(cn1)cc(-c1cc(Nc3noc(-c4ccc(C)nc4Cl)n3)ccc1C)c(=O)n2C [Compound A48, 3-(5-{[5-(2-chloro-6-methylpyridin-3-yl)-1,2,4-oxadiazol-3-yl]amino}-2-methylphenyl)-1,7-dimethyl-1,2-dihydro-1,6-naphthyridin-2-one]",IC50,361 nM
"Cc1cc2c(cn1)cc(-c1cc(Nc3noc(C4(C(F)(F)F)CC4)n3)ccc1C)c(=O)n2C [Compound A58, 1,7-dimethyl-3-(2-methyl-5-(5-(1-(trifluoromethyl)cyclopropyl)-1,2,4-oxadiazol-3-ylamino)phenyl)-1,6-naphthyridin-2(1H)-one]",IC50,399 nM
"Cc1cc2c(cn1)cc(-c1cc(Nc3noc(C4CCCCC4)n3)ccc1C)c(=O)n2C [Compound A18, 3-{5-[(5-cyclohexyl-1,2,4-oxadiazol-3-yl)amino]-2-methylphenyl}-1,7-dimethyl-1,2-dihydro-1,6-naphthyridin-2-one]",IC50,179 nM
"Cc1cc2c(cn1)cc(-c1cc(Nc3noc(-c4ccccn4)n3)ccc1C)c(=O)n2C [Compound A52, 1,7-dimethyl-3-(2-methyl-5-(5-(pyridin-2-yl)-1,2,4-oxadiazol-3-ylamino)phenyl)-1,6-naphthyridin-2(1H)-one]",IC50,68 nM
"Cc1cc2c(cn1)cc(-c1cc(Nc3noc(-c4c(F)cccc4F)n3)ccc1C)c(=O)n2C [Compound A60, 3-(5-{[5-(2,6-difluorophenyl)-1,2,4-oxadiazol-3-yl]amino}-2-methylphenyl)-1,7-dimethyl-1,2-dihydro-1,6-naphthyridin-2-one]",IC50,82 nM
"Cc1cc2c(cn1)cc(-c1cc(Nc3noc(-c4cccc(Cl)n4)n3)ccc1C)c(=O)n2C [Compound A49, 3-(5-{[5-(6-chloropyridin-2-yl)-1,2,4-oxadiazol-3-yl]amino}-2-methylphenyl)-1,7-dimethyl-1,2-dihydro-1,6-naphthyridin-2-one]",IC50,333 nM
"CCOCc1nc(Nc2ccc(C)c(-c3cc4cnc(C)cc4n(C)c3=O)c2)no1 [Compound A74, 3-(5-{[5-(ethoxymethyl)-1,2,4-oxadiazol-3-yl]amino}-2-methylphenyl)-1,7-dimethyl-1,2-dihydro-1,6-naphthyridin-2-one]",IC50,296 nM
Cc1cc2c(cn1)cc(-c1cc(Nc3cc(C(C)C)on3)ccc1C)c(=O)n2C [Compound D14],IC50,144 nM
"Cc1cc2c(cn1)cc(-c1cc(Nc3noc(-c4ccc(Cl)cn4)n3)ccc1C)c(=O)n2C [Compound A26, 3-(5-{[5-(5-chloropyridin-2-yl)-1,2,4-oxadiazol-3-yl]amino}-2-methylphenyl)-1,7-dimethyl-1,2-dihydro-1,6-naphthyridin-2-one]",IC50,27 nM
